Reference: patent USRE37781E1, “Substituted cyclic carbonyls and derivatives thereof useful as retroviral protease inhibitors” (DuPont Pharmaceuticals Company, priority 1991, dated 2002)
Like-named read-outs stand apart in the source and are kept apart here.

Key:
HIV-1 (RF) in MT-2 cells = assay: microbe, parasite or virus in culture; assay type: cell-based
Description: DNA Plasmids and in vitro RNA transcripts:
Plasmid pDAB 72 containing both gag and pol sequences of BH10 (bp 113-1816) cloned into PTZ 19R was prepared according to Erickson-Viitanen et al. AIDS Research and Human Retroviruses 1989, 5, 577. The plasmid was linearized with Bam HI prior to the generation of in vitro RNA transcripts using the Riboprobe Gemini system II kit (Promega) with T7 RNA polymerase. Synthesized RNA was purified by treatment with RNase free DNAse (Promega), phenol-chloroform extraction, and ethanol precipitation. RNA transcripts were dissolved in water, and stored at −70° C. The concentration of RNA was determined from the A260.
Biotinylated capture probes were purified by HPLC after synthesis on an Applied Biosystems (Foster City, Calif.) DNA synthesizer by addition of biotin to the 5′ terminal end of the oligonucleotide, using the biotin-phosphoramidite reagent of Cocuzza, Tet. Lett. 1989, 30, 6287. The gag biotinylated capture probe (5-biotin-[…] 3′) was complementary to nucleotides 889-912 of HXB2 and the pol biotinylated capture probe (5′-biotin-[…] 3′) was complementary to nucleotides 2374-2395 of HXB2. Alkaline phosphatase conjugated oligonucleotides used as reporter probes were prepared by Syngene (San Diego, Calif.). The pol reporter probe (5′ […] 3′) was complementary to nucleotides 2403-2425 of HXB2. The gag reporter probe (5′ […] 3′) was complementary to nucleotides 950-973 of HXB2. All nucleotide positions are those of the GenBank Genetic Sequence Data Bank as accessed through the Genetics Computer Group Sequence Analysis Software Package (Devereau Nucleic Acids Research 1984, 12, 387). The reporter probes were prepared as 0.5μM stocks in 2× SSC (0.3M NaCl, 0.03M sodium citrate), 0.05M Tris pH 8.8, 1 mg/mL BSA. The biotinylated capture probes were prepared as 10 μM stocks in water.
Streptavidin coated plates:
Nunc-immunomodule microtiter plate strips were coated by addition of 200 μL of streptavidin (30 ug/mL, Scripps, La Jolla, Calif.) in freshly prepared 10 mM sodium carbonate (pH 9.6). Plates were incubated overnight at 4° C. Streptavidin solution was aspirated from the wells and a blocking buffer composed of phosphate buffered saline (PBS), 20 mg/mL bovine serum albumin (crystalline, nuclease and protease free, Calbiochem) and 100 mg/mL lactose (Sigma) was added to the plates for 3 hrs at room temperature. Blocking buffer was removed from the wells, which were allowed to dry overnight at room temperature and subsequently stored at 4° C. in zip lock bags with desiccant. For the majority of the compound evaluation experiments, streptavidin coated plates were obtained from Du Pont Biotechnology Systems (Boston, Mass.).
MT-2, CEM, and H9 cells were maintained in RPMI 1640 supplemented with 5% fetal calf serum (FCS), 2 mM L-glutamine and 50 μg/mL gentamycin, all from Gibco. Laboratory strains of HIV-1 (RF, MN and IIIB) were propagated in H9 cells in the same medium. Virus stocks were prepared approximately 1 month after acute infection of H9 cells by clarification of the tissue culture medium and storage of aliquots at −70° C. […] Each aliquot of virus stock used for infection was thawed only once. In some cases, infected H9 cells were shifted to Dulbecco's modified Eagle's medium 3-10 days before collection of virus in order to generate virus stocks in medium with low biotin content. Clinical isolates of HIV that had been passaged once in MT-2 cells were used to infect fresh MT-2 cells in RPMI medium. Three days after infection, cells were pelleted, resuspended and culture continued in Dulbecco's modified Eagle's medium as above. Virus stocks of clinical isolates were prepaid 10-15 days after infection when cytopathic effects were apparent in the culture.

[1] = target: single-chain tethered dimer of HIV protease (Human immunodeficiency virus 1, UniProt P04585); assay: biochemical; assay type: biochemical; parameters: fused on or other part: A second copy of the same protease unit is joined to the first by a short peptide tether, giving one polypeptide
[2] = Human immunodeficiency virus 1, MT2, 48 h, Table 2d, HIV RNA assay, read-out: IC90
[3] = read-out: HPLC K1, Table 2d, HIV protease inhibition, HPLC method
[4] = Human immunodeficiency virus 1, MT2, 48 h, Table 2d, class symbols, read-out: IC90
[5] = read-out: HPLC K1, Table 2d, class symbols
[6] = Table 2d, HIV protease inhibition, HPLC method, read-out: HPLC K1

[N-]=[N+]=NCCCCCN1C(=O)N(CCCCCN=[N+]=[N-])C(Cc2ccccc2)C(O)C(O)C1Cc1ccccc1 (centres unmarked) [15EM] showed an IC90 (HIV-1 (RF) in MT-2 cells; [2]) of less than 10 µg/mL and a Ki [1, 3] of 10 to 1000 nM.

In the case of O=Cc1cc(CN2C(=O)N(Cc3ccc(O)cc3)C(Cc3ccccc3)C(O)C(O)C2Cc2ccccc2)ccc1O (centres unmarked) [Example 11E], the IC90 (HIV-1 (RF) in MT-2 cells; [4]) is reported as less than 10 µg/mL and the Ki [1, 5] is reported as less than 10 nM.

With O=C1N(Cc2cccc(C(=NO)C(F)(F)F)c2)C(Cc2ccccc2)C(O)C(O)C(Cc2ccccc2)N1Cc1cccc(C(=NO)C(F)(F)F)c1 (centres unmarked) [Example 15XR] the IC90 (HIV-1 (RF) in MT-2 cells; [2]) was less than 10 µg/mL and the Ki [1, 3] was less than 10 nM.

For CCNCc1cccc(C(=O)OCc2ccc(CN3C(=O)N(Cc4ccc(COC(=O)c5cccc(CNCC)c5)cc4)[C@H](Cc4ccccc4)[C@H](O)[C@@H](O)[C@H]3Cc3ccccc3)cc2)c1.Cl [29U], the IC90 (HIV-1 (RF) in MT-2 cells; Table 2s) was “+++ (+++=<10 μg/mL)” and the Ki ([1]; Table 2s, read-out: Ki (HPLC)) was greater than 1000 nM.

CN(C)Cc1nc(-c2cccc(CN3C(=O)N(Cc4cccc(-c5noc(CN(C)C)n5)c4)C(Cc4ccccc4)C(O)C(O)C3Cc3ccccc3)c2)no1.Cl.Cl (centres unmarked) [Example 15AO] was tested, and the IC90 (HIV-1 (RF) in MT-2 cells; Table 2d, HIV RNA assay) was “+++ (+++=<10 μg/mL)” and the Ki [1, 6] was less than 10 nM.

NC(=O)c1cccc(CN2C(=O)N(Cc3cccc(C(N)=O)c3)C(Cc3ccccc3)C(O)C(O)C2Cc2ccccc2)c1 (centres unmarked) [10G] was tested, and the IC90 (HIV-1 (RF) in MT-2 cells; [4]) was less than 10 µg/mL and the Ki [1, 5] was less than 10 nM.

For CCN(CC)Cc1cccc(CN2C(=O)N(Cc3cccc(CN(CC)CC)c3)C(Cc3ccccc3)C(O)C(O)C2Cc2ccccc2)c1 (centres unmarked) [Example 15XF], the IC90 (HIV-1 (RF) in MT-2 cells; [2]) was less than 10 µg/mL and the Ki [1, 3] was 10 to 1000 nM.

Work on N#Cc1cccc(CN2C(=O)N(Cc3cccnc3)C(Cc3ccccc3)C(O)C(O)C2Cc2ccccc2)c1 (centres unmarked) [Example 15AR] yielded an IC90 (HIV-1 (RF) in MT-2 cells; [2]) of less than 10 µg/mL and a Ki [1, 3] of less than 10 nM.

In the case of CNCC(=O)NCCCCCN1C(=O)N(CCCCCNC(=O)CNC)C(Cc2ccccc2)C(O)C(O)C1Cc1ccccc1.Cl.Cl (centres unmarked) [15EZ], the IC90 (HIV-1 (RF) in MT-2 cells; HIV RNA assay, HIV-1 infected MT-2 cells, Table 2d) is reported as “++/+ (The ++/+ is used in the cases where an IC90 was determined to be >50 μg/mL)” and the Ki ([1]; HIV protease inhibition, HPLC method, Table 2d, read-out: HPLC K1) is reported as 10 to 1000 nM.

Nc1cccc(CN2C(=O)N(Cc3ccc4ccccc4c3)C(Cc3ccccc3)C(O)C(O)C2Cc2ccccc2)c1 (centres unmarked) [15WU] was tested, and the IC90 (HIV-1 (RF) in MT-2 cells; [4]) was less than 10 µg/mL and the Ki [1, 5] was less than 10 nM.

For O=C1N(Cc2ccc3[nH]nc(Cl)c3c2)C(Cc2ccccc2)C(O)C(O)C(Cc2ccccc2)N1Cc1ccc2[nH]nc(Cl)c2c1 (centres unmarked) [15DI], the IC90 (HIV-1 (RF) in MT-2 cells; Table 2d, HIV RNA assay) was “+++ (+++=<10 μg/mL)” and the Ki [1, 6] was less than 10 nM.

With CC(O)c1cccc(CN2C(=O)N(Cc3cccc(Br)c3)C(Cc3ccccc3)C(O)C(O)C2Cc2ccccc2)c1 (centres unmarked) [Example 9R] the IC90 (HIV-1 (RF) in MT-2 cells; [4]) was less than 10 µg/mL and the Ki [1, 5] was 10 to 1000 nM.

For Cl.Cl.O=C(Nc1cccc(CN2C(=O)N(Cc3cccc(NC(=O)c4ccncc4)c3)C(Cc3ccccc3)C(O)C(O)C2Cc2ccccc2)c1)c1ccncc1 (centres unmarked) [Example 15AC], the IC90 (HIV-1 (RF) in MT-2 cells; Table 2d, HIV RNA assay) was “+++ (+++=<10 μg/mL)” and the Ki [1, 6] was less than 10 nM.

With CN(C)CCNC(=O)c1cccc(CN2C(=O)N(CC3CC3)C(Cc3ccccc3)C(O)C(O)C2Cc2ccccc2)c1 (centres unmarked) [15YA] the IC90 (HIV-1 (RF) in MT-2 cells; Table 2d, HIV RNA assay) was “+++ (+++=<10 μg/mL)” and the Ki [1, 6] was less than 10 nM.

With CCOC(=O)c1cccc(CN2C(=O)N(Cc3cccc(C(=O)OCC)c3)C(Cc3ccccc3)C(O)C(O)C2Cc2ccccc2)c1 (centres unmarked) [10W] the IC90 (HIV-1 (RF) in MT-2 cells; Table 2d, class symbols) was “+ (+=>100 μg/mL)” and the Ki ([1]; Table 2d, class symbols, read-out: HPLC K1) was less than 10 nM.

NCCCCCCN1C(=O)N(Cc2ccccc2)C(Cc2ccccc2)C(O)C(O)C1Cc1ccccc1 (centres unmarked) [Example 12B] showed an IC90 (HIV-1 (RF) in MT-2 cells; [4]) greater than 100 µg/mL and a Ki [1, 5] of 10 to 1000 nM.

CC(C)(CO)CCCCN1C(=O)N(CCCCC(C)(C)CO)C(Cc2ccccc2)C(O)C(O)C1Cc1ccccc1 (centres unmarked) [15CP] was tested, and the IC90 (HIV-1 (RF) in MT-2 cells; Table 2d, HIV RNA assay) was “+++ (+++=<10 μg/mL)” and the Ki [1, 6] was 10 to 1000 nM.

With NC(=O)c1cccc(CN2C(=O)N(Cc3cccc(C(N)=O)c3)C(Cc3ccc(F)c(F)c3)C(O)C(O)C2Cc2ccc(F)c(F)c2)c1 (centres unmarked) [20AC] the IC90 (HIV-1 (RF) in MT-2 cells; Table 2i) was “+++ (+++=<10 μg/mL)” and the Ki ([1]; Table 2i, read-out: HPLC Ki) was less than 10 nM.

For C[Si](C)(C)CCOCn1ccnc1-c1cccc(CN2C(=O)N(Cc3cccc(-c4ncc[nH]4)c3)C(Cc3ccccc3)C(O)C(O)C2Cc2ccccc2)c1 (centres unmarked) [Example 15YK], the IC90 (HIV-1 (RF) in MT-2 cells; [2]) was less than 10 µg/mL and the Ki [1, 3] was 10 to 1000 nM.
